Laboratory results taken from patent publication US20090291945A1, “CYSTEINE PROTEASE INHIBITORS” (Teijin Pharma Limited, priority 2008, published 2009).

Molecular target: T1, cathepsin K (Homo sapiens, UniProt P43235)
T1 construct: the active enzyme was obtained as the enzyme fraction by using detergent containing lysis buffer; made in house; host or cells: HEK293T (GenHunter Corporation), transient expression; detergent lysate used as enzyme fraction
T1 sequence (P43235 115-329): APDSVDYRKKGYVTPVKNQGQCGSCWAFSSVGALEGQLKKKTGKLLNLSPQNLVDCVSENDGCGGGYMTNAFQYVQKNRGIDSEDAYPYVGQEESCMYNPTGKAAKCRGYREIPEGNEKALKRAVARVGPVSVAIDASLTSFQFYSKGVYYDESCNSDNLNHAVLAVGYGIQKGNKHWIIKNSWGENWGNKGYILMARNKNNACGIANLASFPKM
Test: Cathepsin K inhibitory activity (fluorescent substrate Z-Leu-Arg-MCA)
Assay type: biochemical
Settings: enzyme expressed in HEK293T; 15 min preincubation, 30 min reaction at room temperature, pH 5.5; read-out: Activity Intensity (cathepsin K inhibitory activity, pIC50 class) (converted)
Description: Cathepsin K inhibitory activities of the compounds synthesized according to the methods of the above examples were measured.
Cathepsin K used for evaluation of inhibitory activity was transiently expressed in an animal cell HEK293T (made by GenHunter Corporation) and the active enzyme was obtained as the enzyme fraction by using detergent containing lysis buffer.
The enzyme solution A was prepared at 2.1 times final concentration by diluting the enzyme fraction with assay buffer (50 mM sodium acetate, 50 mM sodium chloride, 2 mM DTT, pH 5.5). The test compound solutions B were prepared at 50 times final target concentrations by dimethylsulfoxide (DMSO). As a substrate solution C, a solution of a fluorescent substrate, benzyloxycarbonyl-L-leucyl-L-arginyl-4-methyl-coumaryl-7-amide (Z-Leu-Arg-MCA (Peptide Institute Inc.), was prepared at 10 μM by an assay buffer.
To the enzyme solution A (38.4 μL) were added the test compound solutions B (1.6 μL) and mixed individually. The mixtures were incubated at room temperature for 15 minutes. To the incubated solutions were added the substrate solution C (40 μL) and the mixtures were reacted at room temperature for 30 minutes respectively. The fluorescence intensities of the enzyme reaction solutions were measured at excitation wavelength of 355 nm and measurement wavelength of 460 nm and the enzyme activities were calculated from these fluorescence intensities caused by 7-amino-4-methylcoumarine released. The enzyme activity with using DMSO instead of the test compound solution B was taken as 100% and the inhibitory rates at each concentration of the test compound were calculated. The […] response curve was fitted to the plots. The 50% inhibitory concentration against cathepsin K was calculated from this curve.
Note that the symbols (+, ++, and +++) in this table represent the inhibitory activity values as below. Here, pIC50 is the value representing a negative logarithm of IC50, (−log10(IC50)). IC50 is a 50% inhibitory concentration.

Row | SMILES | IC50 [nM]
1 | CC(C)(F)C[C@H](N[C@@H](c1ccccc1)C(F)(F)F)C(=O)N[C@@H](CCC#N)CNc1ccc(N2CCOCC2)cc1 [Compound 94] | ≤ 3.16
2 | CC[C@@H](CNc1ccc(N2CCOCC2)cc1)NC(=O)[C@H](CC(C)C)N[C@@H](c1cccnc1)C(F)(F)F [Compound 27] | ≤ 3.16
3 | CC[C@@H](CNc1ccc(N2CCOCC2)cc1)NC(=O)[C@H](CC(C)C)N[C@@H](c1ccccn1)C(F)(F)F [Compound 32] | ≤ 3.16
4 | CC[C@@H](CNc1ccc(N2CCOCC2)cc1)NC(=O)[C@H](CC(C)C)N[C@@H](c1ccc2c(c1)OCO2)C(F)(F)F [Compound 29] | ≤ 3.16
5 | CC[C@@H](CNc1ccc(N2CCOCC2)cc1)NC(=O)[C@H](CC(C)C)N[C@@H](c1ccc(Cl)cc1)C(F)(F)F [Compound 34] | ≤ 3.16
6 | CC[C@@H](CNc1ccccc1N1CCOCC1)NC(=O)[C@H](CC(C)C)N[C@@H](c1ccccc1)C(F)(F)F [Compound 88] | 31.6 to 10000
7 | CC[C@@H](CNc1ccc(-n2ccnc2)cc1)NC(=O)[C@H](CC(C)C)N[C@@H](c1ccc(OC)nc1)C(F)(F)F [Compound 113] | 31.6 to 10000
8 | CC[C@@H](CNc1ccc(OCC(=O)N2CCOCC2)cc1OC)NC(=O)[C@H](CC(C)(C)F)N[C@@H](c1ccccc1)C(F)(F)F [Compound 136] | ≤ 3.16
9 | CC[C@@H](CNc1ccc(OC)cc1OC)NC(=O)[C@H](CC(C)(C)F)N[C@@H](c1ccc(Br)cc1)C(F)(F)F [Compound 6] | ≤ 3.16
10 | CC[C@@H](CNc1ccc(N2CCOCC2)cc1)NC(=O)[C@H](CC(C)C)N[C@@H](c1ccc(OC(F)F)cc1)C(F)(F)F [Compound 33] | ≤ 3.16
11 | CC[C@@H](CNc1ccc(OC)cc1OC)NC(=O)[C@H](CC(C)C)N[C@@H](c1ccc(S(C)(=O)=O)cc1)C(F)(F)F [Compound 23] | ≤ 3.16
12 | CC(C)C[C@H](N[C@@H](c1ccccc1)C(F)(F)F)C(=O)N[C@@H](CNC(=O)OCc1ccccc1)CNc1ccc(N2CCOCC2)cc1 [Compound 104] | ≤ 3.16
13 | CC(C)C[C@H](N[C@@H](c1ccccc1)C(F)(F)F)C(=O)N[C@H](CNc1ccc(N2CCOCC2)cc1)CC(=O)OCc1ccccc1 [Compound 69] | ≤ 3.16
14 | CC[C@@H](CNc1ccc(OC)cc1OC)NC(=O)[C@H](CC(C)C)N[C@@H](c1ccc(OC)nc1)C(F)(F)F [Compound 25] | 3.16 to 31.6
15 | CC[C@@H](CNc1ccc(OCCCC(=O)OC)cc1OC)NC(=O)[C@H](CC(C)C)N[C@@H](c1ccccc1)C(F)(F)F [Compound 85] | ≤ 3.16
16 | CC[C@@H](CNc1ccc(N2CCO[C@@H](C(=O)OC)C2)cc1)NC(=O)[C@H](CC(C)C)N[C@@H](c1ccccc1)C(F)(F)F [Compound 56] | ≤ 3.16
17 | CC[C@@H](CNc1ccc(N2CCOCC2)cc1)NC(=O)[C@H](CC(C)C)N[C@@H](c1ccc(S(C)(=O)=O)cc1)C(F)(F)F [Compound 24] | ≤ 3.16
18 | COc1ccc(NC[C@H](COCc2ccccc2)NC(=O)[C@H](CC(C)(C)F)N[C@@H](c2ccc(-c3ccc(S(C)(=O)=O)cc3)cc2)C(F)(F)F)cc1 [Compound 2, N-{(1R)-2-[(4-methoxyphenyl)amino]-1-[(phenylmethoxy)methyl]ethyl}(2S)-2-[((1S)-2,2,2-trifluoro-1-{4-[4-(methylsulfonyl)phenyl]phenyl}ethyl)amino]-4-fluoro-4-methylpentanamide] | 31.6 to 10000
19 | CCOC(=O)CCCCOc1ccc(NC[C@H](CC)NC(=O)[C@H](CC(C)C)N[C@@H](c2ccccc2)C(F)(F)F)c(OC)c1 [Compound 86] | ≤ 3.16
20 | CC[C@@H](CNc1ccc(-n2nccc2C(=O)O)cc1)NC(=O)[C@H](CC(C)C)N[C@@H](c1ccc(OC)nc1)C(F)(F)F [Compound 144] | 31.6 to 10000
21 | CC[C@@H](CNc1ccc(N2C[C@@H](C)O[C@@H](C)C2)cc1)NC(=O)[C@H](CC(C)C)N[C@@H](c1ccc(OC)nc1)C(F)(F)F [Compound 52] | ≤ 3.16
22 | CC[C@@H](CNc1ccc(OCCS(C)(=O)=O)cc1OC)NC(=O)[C@H](CC(C)(C)F)N[C@@H](c1ccc(Br)cc1)C(F)(F)F [Compound 138-2, (2S)-2-{[(1S)-1-(4-bromophenyl)-2,2,2-trifluoroethyl]amino}-N-{(1S)-1-[({2-methoxy-4-[2-(methylsulfonyl)ethoxy]phenyl}amino)methyl]propyl}-4-fluoro-4-methylpentanamide] | ≤ 3.16
23 | CC[C@@H](CNc1ccc(N2CCC(C(=O)O)CC2)cc1)NC(=O)[C@H](CC(C)C)N[C@@H](c1ccc(OC)nc1)C(F)(F)F [Compound 146] | ≤ 3.16

Other lines, results leading:

Row | IC50 [nM] | SMILES
24 | 31.6 to 10000 | CC[C@@H](CNc1ccc(-c2ccccc2)cc1)NC(=O)[C@H](CC(C)C)N[C@@H](c1ccccc1)C(F)(F)F [Compound 45]
25 | 31.6 to 10000 | CC[C@@H](CNc1ccc(OC)cc1OC)NC(=O)[C@H](Cc1ccccc1)N[C@@H](c1ccccc1)C(F)(F)F [Compound 57]
26 | 31.6 to 10000 | CC[C@@H](CNc1ccc(-n2ccnc2)cc1)NC(=O)[C@H](CC(C)C)N[C@@H](c1ccccc1)C(F)(F)F [Compound 112]
27 | ≤ 3.16 | CC(C)C[C@H](N[C@@H](c1ccc(S(C)(=O)=O)cc1)C(F)(F)F)C(=O)N[C@@H](C)CNc1ccc(N2CCOCC2)cc1 [Compound 73]
28 | 31.6 to 10000 | COc1ccc(NC[C@H](CC(C)C)NC(=O)[C@H](Cc2ccccc2)N[C@@H](c2ccccc2)C(F)(F)F)c(OC)c1 [Compound 63]
29 | 31.6 to 10000 | CC(C)C[C@H](N[C@@H](c1ccccc1)C(F)(F)F)C(=O)N[C@@H](CCCO)CNc1ccc(N2CCOCC2)cc1 [Compound 125]
30 | ≤ 3.16 | CC[C@@H](CNc1ccc(N2CCOCC2)cc1)NC(=O)[C@H](CC(C)C)N[C@@H](c1ccc(N(C)C)cc1)C(F)(F)F [Compound 35]
31 | ≤ 3.16 | CC(C)C[C@H](N[C@@H](c1ccccc1)C(F)(F)F)C(=O)N[C@@H](CCCC(=O)OC(C)(C)C)CNc1ccc(N2CCOCC2)cc1 [Compound 91]
32 | 3.16 to 31.6 | CC[C@@H](CNc1ccc(OC)cc1OC)NC(=O)[C@H](CC(C)C)N[C@@H](c1ccc(O)cc1)C(F)(F)F [Compound 157, (2S)—N-((1S)-1-{[(2,4-dimethoxyphenyl)amino]methyl}propyl)-2-{[(1S)-2,2,2-trifluoro-1-(4-hydroxyphenyl)ethyl]amino}-4-methylpentanamide]
33 | 3.16 to 31.6 | CC[C@@H](CNc1ccc(OC)cc1OC)NC(=O)[C@H](CC(C)C)N[C@@H](c1ccc(=O)n(C)c1)C(F)(F)F [Compound 44]
34 | 3.16 to 31.6 | CC[C@@H](CNc1ccc(N2CCOCC2)cc1)NC(=O)C1(NC(c2ccccc2)C(F)(F)F)CCCCC1 (stereo partly drawn) [Compound 11, N-((1S)-1-{[(4-morpholin-1-ylphenyl)amino]methyl}propyl) {[(2,2,2-trifluoro-1-phenylethyl)amino]cyclohexyl}carboxamide]
35 | ≤ 3.16 | CC[C@@H](CNc1ccc(N2CCOCC2)cc1)NC(=O)[C@H](CC(C)C)N[C@@H](c1ccc(OC)nc1)C(F)(F)F [Compound 26]
36 | 3.16 to 31.6 | CC[C@@H](CNc1ccc(OCC(F)(F)C(F)F)cc1OC)NC(=O)[C@H](CC(C)(C)F)N[C@@H](c1ccccc1)C(F)(F)F [Compound 22]
37 | ≤ 3.16 | CC[C@@H](CNc1ccc(N2CCOCC2)cc1)NC(=O)[C@H](CC(C)(C)F)N[C@@H](c1ccc(-c2ccc(S(C)(=O)=O)cc2)cc1)C(F)(F)F [Compound 9, (2S)—N-((1S)-1-{[(4-morpholin-4-ylphenyl)amino]methyl}propyl)-2-[((1S)-2,2,2-trifluoro-1-{4-[4-(methylsulfonyl)phenyl]phenyl}ethyl)amino]-4-fluoro-4-methylpentanamide]
